Data: patent publication US20130096119A1, “Isoquinolin-3-Ylurea Derivatives” (priority 2010, published 2013)
Converted amounts (≈) assume the structure as drawn.

Tested on: S. pneumoniae ATCC 49619
Test: Minimal inhibitory concentration (MIC) by microdilution method (CLSI M7-A7)
Format: cell-based, Streptococcus pneumoniae
Details: Streptococcus pneumoniae, ATCC49619, cation-adjusted Mueller-Hinton Broth supplemented with 3% (v/v) lysed horse blood
Outline: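 Broth microdilution per CLSI M7-A7 in cation-adjusted Mueller-Hinton broth, supplemented with 3% (v/v) lysed horse blood for S. pneumoniae; MIC reported in mg/l.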

Row | Structure (SMILES) | MIC
1 | Cc1ccc(-c2ccncc2)c2cc(NC(=O)NCCF)ncc12 [Example 138, 1-(2-fluoro-ethyl)-3-(8-methyl-5-pyridin-4-yl-isoquinolin-3-yl)-urea] | 1 µg/mL (≈ 3.08 µM)
2 | CCNC(=O)Nc1cc2cc(-c3ccc4c(c3)CCO4)cc(C)c2cn1 [Example 83, 1-[6-(2,3-dihydro-benzofuran-5-yl)-8-methyl-isoquinolin-3-yl]-3-ethyl-urea] | 1 µg/mL (≈ 2.88 µM)
3 | CCNC(=O)Nc1cc2c(-c3cccc4[nH]ccc34)ccc(C)c2cn1 [Example 69, 1-ethyl-3-[5-(1H-indol-4-yl)-8-methyl-isoquinolin-3-yl]-urea] | 16 µg/mL (≈ 46.5 µM)

Continued by falling MIC, values first:

Row | MIC | Structure (SMILES)
4 | 8 µg/mL (≈ 19.3 µM) | CCNC(=O)Nc1cc2cc(NCc3cccc(Cn4cncn4)c3)cc(C)c2cn1 [Example 188, 1-{6-[(3-((1H-1,2,4-triazol-1-yl)methyl)benzyl)amino]-8-methylisoquinolin-3-yl}-3-ethylurea]
5 | 8 µg/mL (≈ 24.4 µM) | CCNC(=O)Nc1cc2c(-c3ccncn3)ccc(Cl)c2cn1 [Example 286, 1-(8-chloro-5-pyrimidin-4-yl-isoquinolin-3-yl)-3-ethyl-urea]
6 | 0.5 µg/mL (≈ 1.33 µM) | CCNC(=O)Nc1cc2cc(-c3ccc(CNC(C)=O)cc3)cc(C)c2cn1 [Example 81, N-{4-[3-(3-ethyl-ureido)-8-methyl-isoquinolin-6-yl]-benzyl}-acetamide]
